From US20250179028A1, “ACRYLAMIDE COMPOUNDS” (NRG THERAPEUTICS LTD, priority 2022, published 2025)
≈ marks a conversion by molar mass, not a printed value.

Legend:
[1] = PBS and FaSSIF solubility; format: physicochemical; conditions: aqueous buffer, kinetic from dmso stock; PBS pH 7.4, 2 hr at 25° C.; read-out: Solubility PBS (pH 7.4)
Description: Test compounds were prepared as 10 mM stocks in DMSO and 15 μl samples transferred in duplicate into 1.5 mL glass flat bottom vials (BioTech Solutions). Fasted state simulated intestinal fluid (FaSSIF) or PBS (pH 7.4) was added to each vial to final volume of 500 μl. One PTFE encapsulated stir stick (V&P Scientific) was placed in each vial before sealing with PTFE/SIL plugs (BioTech Solutions). Vials were shaken at 1100 rpm for 2 hr at 25° C. Samples were then filtered through MultiScreen Solvinert filter plates (Millipore) via vacuum filtration. Aliquots of filtrate (5 μl) plus 5 μl DMSO were diluted in 490 μl 50% acetonitrile in water containing internal standard. The filtrate was analysed and quantified against a standard of known concentration using LC-MS/MS. Solubility values of the test compound and control compound were calculated as follows: […]

CYP2D6 = CYP2D6 (Homo sapiens (Human), UniProt P10635); experiment: Cytochrome P450 CYP2D6 inhibition in human liver microsomes; format: in vitro ADME; conditions: probe dextromethorphan 2 µM (dextrorphan formation); 1 uM test compound, human liver microsomes; average value from two experiments; negative values = no effective inhibition
Description: Studies to assess tested compound mediated inhibition of cytochrome P450 enzyme isoform CYP2D6 were performed using human liver microsomes (BD Gentest) using either a single concentration (1 μM) of test compound or concentration response (0.1, 0.3, 1, 3, 10 and 30 μM) to derive an IC50. Tested compound solutions were prepared from 10 mM stocks in DMSO and diluted to 200 μM in DMSO. Reactions were prepared in a 96 deep well plate by combining 1 μl test compound with 179 μl reaction mixture (100 mM phosphate buffered saline (PBS), 0.2 mg/mL microsomes and 2 μM Dextromethorphan prepared from stocks as detailed below).
The positive control inhibitor, quinidine, was used at a final concentration of 0.5 μM when used at a single concentration. The final concentrations of quinidine used to derive an IC50 were 0, 0.1, 0.3, 1, 3, 10 and 30 μM. Plates were warmed at 37° C. for 15 min before starting reactions with 20 μl 10 mM NADPH solution in PBS and incubated for 20 min at 37° C. The assay is performed in duplicate. Reactions were quenched with 200 μl cold acetonitrile containing internal standards (200 nM labetalol, 200 nM alprazolam and 100 nM tolbutamide). The plate was centrifuged at 4000 rpm for 30 minutes, placed on ice for 20 minutes and then centrifuged at 4000 rpm for 30 minutes again to precipitate protein. 100 μL of the supernatant was transferred to a new plate and diluted with 100 μL pure water before being analysed using UPLC/MS/MS. The products of the transformation for dextromethorphan to dextrorphan was monitored by UPLC-MS/MS. The inhibition of CYP2D6 in human liver microsomes was measured as the percentage decrease in the activity of dextrorphan formation compared to non-inhibited controls (=100% activity). The IC50 value was calculated (test compound concentration which produces 50% inhibition) by using Excel Xlfit.

mPTP = mPTP activity (Ca2+ retention) assay in isolated rat liver mitochondria; format: biochemical; conditions: isolated rat liver mitochondria; average value from multiple experiments (n ≥ 2)
Description: Pharmacological inhibition or modulation of the mPTP can be measured in well characterised ‘Ca^2+ retention’ assays performed in isolated mitochondria. In vitro isolated mitochondria rapidly sequester exogenous Ca^2+ until the intramitochondrial Ca^2+ concentration reaches the threshold for mPTP activation. Once the pore is activated, mitochondrial integrity is compromised and the stored Ca^2+ is released. The distribution of Ca^2+ between extra- and intra-mitochondrial compartments can be measured in real time with the use of membrane-impermeant Ca^2+ sensitive fluorescent dyes. Depending on the configuration of the assay, inhibition or modulation of the mPTP either delays the opening of the pore or increases the concentration of Ca^2+ required to induce mPTP opening.
MPTP activity was measured in mitochondria freshly isolated from female Sprague Dawley (250 to 300 gram) rat livers using the following method. Cervical dislocation was performed on the rat. The liver was then perfused in-situ with ˜40 ml cold Dulbecco's Phosphate Buffered Saline (DPBS) prior to dissection and transferred into 30 ml Isolation Buffer (250 mM Sucrose, 10 mM KCl, 1 mM EGTA, 1 mM EDTA, 25 mM HEPES, adjusted to pH 7.5 with 1 M NaOH). Each lobe of the liver was then removed from the buffer, minced using tweezers and a scalpel into ˜5 mm pieces then transferred into a 50 ml Potterton dounce homogenization tube on ice containing 30 ml ice-cold centrifugation buffer (300 mM Trehalose, 25 mM HEPES, 1 mM EGTA, 1 mM EDTA, 10 mM KCl, adjusted to pH 7.5 with 1 M NaOH and supplemented with 0.1% bovine serum albumin (BSA) and complete protease inhibitor cocktail (one tablet of inhibitor per 50 mls of buffer). Homogenisation was carried out using a teflon pestle at 1800 rpm. The slurry was centrifuged at 800 g for 10 min at 4° C., then the supernatant centrifuged at 10,000 g for 10 min. The pellet was washed once with FLIPR assay buffer (75 mM Mannitol, 25 mM Sucrose, 5 mM Potassium Phosphate Monobasic, 20 mM Tris base, 100 mM KCl, 0.1% BSA adjusted to pH 7.4 with 5M HCl) centrifuged again, then resuspended in FLIPR assay buffer to a concentration of 8.8 mg/ml protein.
Tested compounds (10 mM stock in DMSO) were serially diluted in DMSO in half log steps to generate 10 test concentrations (final concentrations in assay 30 μM to 1 nM). An intermediate dilution of 5 μl DMSO samples into 247 μl FLIPR assay buffer was carried out prior to transfer of 5 μl into duplicate wells of a 384 well polypropylene assay plate. Control wells were 0.5% (v/v) DMSO and 5 μM cyclosporin A.
A stock mitochondria/Fluo5N assay solution was prepared in 5.6 ml FLIPR assay buffer (at RT) supplemented with succinate disodium salt (10 mM), rotenone (1 μM), Fluo5N pentapotassium salt (2 μM) and 1 ml mitochondria suspension, then transferred (15 μl) into the assay plate containing test compounds and incubated for 10 min at RT. Assay plates were then transferred to a FLIPR Tetra plate reader (Molecular Devices). Dye fluorescence was then measured every 3 sec for a total of 10 min. After 12 sec, a 2.5 μl bolus of CaCl2 (75 μM) was added from a source plate containing 675 μM CaCl2 in FLIPR assay buffer. IC50 values for tested compounds were calculated using the fluorescence value collected at the 10 min timepoint with % inhibition calculated using the DMSO control and cyclosporin A values as […] respectively.

Chain of CYP2D6 (P10635 whole entry, canonical isoform): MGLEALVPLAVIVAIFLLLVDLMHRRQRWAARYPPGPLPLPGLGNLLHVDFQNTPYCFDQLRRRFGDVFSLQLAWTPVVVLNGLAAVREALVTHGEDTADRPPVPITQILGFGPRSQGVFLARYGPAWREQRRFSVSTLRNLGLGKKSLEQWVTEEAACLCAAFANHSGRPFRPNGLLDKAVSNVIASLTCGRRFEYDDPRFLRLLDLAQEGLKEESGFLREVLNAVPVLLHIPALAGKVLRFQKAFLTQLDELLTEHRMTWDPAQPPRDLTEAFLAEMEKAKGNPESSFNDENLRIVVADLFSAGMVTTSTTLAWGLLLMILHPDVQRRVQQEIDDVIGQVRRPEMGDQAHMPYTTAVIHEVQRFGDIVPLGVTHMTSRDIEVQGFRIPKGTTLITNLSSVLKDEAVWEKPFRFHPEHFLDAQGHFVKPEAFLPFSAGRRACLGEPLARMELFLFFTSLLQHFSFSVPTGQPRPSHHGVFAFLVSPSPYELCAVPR

Q: For Cc1ccc(F)cc1NC(=O)/C=C/c1ccc2oc(=O)[nH]c2c1 [Example 17, (E)-N-(5-fluoro-2-methylphenyl)-3-(2-oxo-2,3-dihydrobenzo[d]oxazol-5-yl)acrylamide], which solubility at 2 h [1] is on record?
A: The solubility at 2 h was 0.15 µM (≈ 0.0468 µg/mL).

Q: And the inhibition at 20 min, 1 µM (CYP2D6)?
A: Its inhibition at 20 min, 1 µM is 1.91%.

Q: Which solubility at 2 h [1] does the source give for Cc1c(Cl)cccc1NC(=O)/C=C/c1ccc2oc(=O)[nH]c2c1 [Example 9, (E)-N-(3-chloro-2-methylphenyl)-3-(2-oxo-2,3-dihydrobenzo[d]oxazol-5-yl)acrylamide] here?
A: The solubility at 2 h was 0.6 µM (≈ 0.197 µg/mL).

Q: What about the “mPTP Rat liver pIC50” value (mPTP) of the same molecule?
A: The value was 7.4.

Q: What about the inhibition at 20 min, 1 µM (CYP2D6) of the same molecule?
A: The inhibition at 20 min, 1 µM was -2.59%.

Q: For CC(C)c1ccc(Cl)cc1NC(=O)/C=C/c1ccc2oc(=O)[nH]c2c1 [Example 15, (E)-N-(5-chloro-2-isopropylphenyl)-3-(2-oxo-2,3-dihydrobenzo[d]oxazol-5-yl)acrylamide], which solubility at 2 h [1] is on record?
A: The solubility at 2 h was 0.03 µM (≈ 0.0107 µg/mL).

Q: What about the “mPTP Rat liver pIC50” value (mPTP) of the same molecule?
A: The value was 6.9.

Q: And the inhibition at 20 min, 1 µM (CYP2D6)?
A: Its inhibition at 20 min, 1 µM is -0.28%.

Q: What does the source list for Cc1ccccc1NC(=O)/C=C/c1ccc2oc(=O)[nH]c2c1 [Example 12, (E)-3-(2-oxo-2,3-dihydrobenzo[d]oxazol-5-yl)-N-(o-tolyl)acrylamide]?
A: mPTP Rat liver pIC50 (mPTP): 6.5; inhibition at 20 min, 1 µM (CYP2D6): 3.05%

Q: With Cc1cc(F)c(F)cc1NC(=O)/C=C/c1ccc2oc(=O)[nH]c2c1 [Example 16, (E)-N-(4,5-difluoro-2-methylphenyl)-3-(2-oxo-2,3-dihydrobenzo[d]oxazol-5-yl)acrylamide] as the molecule, how does the “mPTP Rat liver pIC50” value (mPTP) read?
A: The value was 6.8.

Q: What about the inhibition at 20 min, 1 µM (CYP2D6) of the same molecule?
A: Its inhibition at 20 min, 1 µM is 1.72%.

Q: For Cc1c(F)cccc1NC(=O)/C=C/c1ccc2c(c1)NC(=O)C2(C)C [Example 3, (E)-3-(3,3-dimethyl-2-oxoindolin-6-yl)-N-(3-fluoro-2-methylphenyl)acrylamide], which solubility at 2 h [1] is on record?
A: The solubility at 2 h was 1.75 µM (≈ 0.592 µg/mL).

Q: And the “mPTP Rat liver pIC50” value (mPTP)?
A: Its value is 6.4.

Q: What about the inhibition at 20 min, 1 µM (CYP2D6) of the same molecule?
A: Its inhibition at 20 min, 1 µM is -1.87%.

Q: Which “mPTP Rat liver pIC50” value (mPTP) does the source give for CC1CCCC1NC(=O)/C=C/c1ccc2oc(=O)[nH]c2c1 (centres unmarked) [Example 49, (E)-N-(2-methylcyclopentyl)-3-(2-oxo-2,3-dihydrobenzo[d]oxazol-5-yl)acrylamide] here?
A: Its value is 5.8.

Q: What about the inhibition at 20 min, 1 µM (CYP2D6) of the same molecule?
A: Its inhibition at 20 min, 1 µM is 4.52%.

Q: With Cc1c(F)cccc1NC(=O)/C=C/c1ccc2c(c1)NC(=O)C21CC1 [Example 4, (E)-N-(3-fluoro-2-methylphenyl)-3-(2′-oxospiro[cyclopropane-1,3′-indolin]-6′-yl)acrylamide] as the molecule, how does the solubility at 2 h [1] read?
A: The solubility at 2 h was 0.31 µM (≈ 0.104 µg/mL).

Q: What about the “mPTP Rat liver pIC50” value (mPTP) of the same molecule?
A: The value was 6.5.

Q: What about the inhibition at 20 min, 1 µM (CYP2D6) of the same molecule?
A: The inhibition at 20 min, 1 µM was 2.89%.

Q: What does the source list for Cc1cccc(C(C)C)c1NC(=O)/C=C/c1ccc2oc(=O)[nH]c2c1 [Example 14, (E)-N-(2-isopropyl-6-methylphenyl)-3-(2-oxo-2,3-dihydrobenzo[d]oxazol-5-yl)acrylamide]?
A: solubility at 2 h [1]: 16 µM (≈ 5.38 µg/mL); mPTP Rat liver pIC50 (mPTP): 6.5; inhibition at 20 min, 1 µM (CYP2D6): -0.52%

Q: For Cc1n[nH]c2cc(/C=C/C(=O)NC3c4ccccc4CC3C)ccc12 (centres unmarked) [Example 38, (E)-3-(3-methyl-1H-indazol-6-yl)-N-(2-methyl-2,3-dihydro-1H-inden-1-yl)acrylamide], which “mPTP Rat liver pIC50” value (mPTP) is on record?
A: Its value is 7.2.

Q: And the inhibition at 20 min, 1 µM (CYP2D6)?
A: The inhibition at 20 min, 1 µM was 7.3%.

Q: Which results are given for CC(C)c1ccccc1NC(=O)/C=C/c1ccc2oc(=O)[nH]c2c1 [Example 13, (E)-N-(2-isopropylphenyl)-3-(2-oxo-2,3-dihydrobenzo[d]oxazol-5-yl)acrylamide]?
A: solubility at 2 h [1]: 5.3 µM (≈ 1.71 µg/mL); mPTP Rat liver pIC50 (mPTP): 6.0; inhibition at 20 min, 1 µM (CYP2D6): 3.84%

Q: What does the source list for Cc1n[nH]c2cc(/C=C/C(=O)Nc3cccc4cnn(C)c34)ccc12 [Example 39, (E)-3-(3-methyl-1H-indazol-6-yl)-N-(1-methyl-1H-indazol-7-yl)acrylamide]?
A: mPTP Rat liver pIC50 (mPTP): 7.5; inhibition at 20 min, 1 µM (CYP2D6): 3.83%

Q: What does the source list for Cc1cccc(C)c1NC(=O)/C=C/c1ccc2c(C)n[nH]c2c1 [Example 31, (E)-N-(2,6-dimethylphenyl)-3-(3-methyl-1H-indazol-6-yl)acrylamide]?
A: mPTP Rat liver pIC50 (mPTP): 7.7; inhibition at 20 min, 1 µM (CYP2D6): 19.9%
